Data from patent publication US9932314B2, “Pyrazole compounds and their use as T-type calcium channel blockers” (IDORSIA PHARMACEUTICALS LTD, priority 2015, dated 2018).

Target: T1, voltage-dependent T-type calcium channel subunit alpha-1G (Cav3.2) (Homo sapiens, UniProt O95180)
T1 construct: expressed in transfected cells; host or cells: HEK293
Test: FLIPR calcium flux assay, HEK293 cells recombinantly expressing Cav3.2
Format: cell-based
Conditions: Cav3.2-channel, Fluo-4-AM, 3 min incubation, stimulation with 10 mM CaCl2
How it was run: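 Calcium influx was triggered by adding CaCl2 to 10 mM final, 3 min after compounds in tetraethylammonium-based buffer, pH 7.2, reached Fluo-4-AM-loaded recombinant HEK293 cells. The integrated kinetic fluorescence signal per concentration gave concentration-response curves by non-linear sigmoidal regression.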

T1 sequence (O95180 whole entry): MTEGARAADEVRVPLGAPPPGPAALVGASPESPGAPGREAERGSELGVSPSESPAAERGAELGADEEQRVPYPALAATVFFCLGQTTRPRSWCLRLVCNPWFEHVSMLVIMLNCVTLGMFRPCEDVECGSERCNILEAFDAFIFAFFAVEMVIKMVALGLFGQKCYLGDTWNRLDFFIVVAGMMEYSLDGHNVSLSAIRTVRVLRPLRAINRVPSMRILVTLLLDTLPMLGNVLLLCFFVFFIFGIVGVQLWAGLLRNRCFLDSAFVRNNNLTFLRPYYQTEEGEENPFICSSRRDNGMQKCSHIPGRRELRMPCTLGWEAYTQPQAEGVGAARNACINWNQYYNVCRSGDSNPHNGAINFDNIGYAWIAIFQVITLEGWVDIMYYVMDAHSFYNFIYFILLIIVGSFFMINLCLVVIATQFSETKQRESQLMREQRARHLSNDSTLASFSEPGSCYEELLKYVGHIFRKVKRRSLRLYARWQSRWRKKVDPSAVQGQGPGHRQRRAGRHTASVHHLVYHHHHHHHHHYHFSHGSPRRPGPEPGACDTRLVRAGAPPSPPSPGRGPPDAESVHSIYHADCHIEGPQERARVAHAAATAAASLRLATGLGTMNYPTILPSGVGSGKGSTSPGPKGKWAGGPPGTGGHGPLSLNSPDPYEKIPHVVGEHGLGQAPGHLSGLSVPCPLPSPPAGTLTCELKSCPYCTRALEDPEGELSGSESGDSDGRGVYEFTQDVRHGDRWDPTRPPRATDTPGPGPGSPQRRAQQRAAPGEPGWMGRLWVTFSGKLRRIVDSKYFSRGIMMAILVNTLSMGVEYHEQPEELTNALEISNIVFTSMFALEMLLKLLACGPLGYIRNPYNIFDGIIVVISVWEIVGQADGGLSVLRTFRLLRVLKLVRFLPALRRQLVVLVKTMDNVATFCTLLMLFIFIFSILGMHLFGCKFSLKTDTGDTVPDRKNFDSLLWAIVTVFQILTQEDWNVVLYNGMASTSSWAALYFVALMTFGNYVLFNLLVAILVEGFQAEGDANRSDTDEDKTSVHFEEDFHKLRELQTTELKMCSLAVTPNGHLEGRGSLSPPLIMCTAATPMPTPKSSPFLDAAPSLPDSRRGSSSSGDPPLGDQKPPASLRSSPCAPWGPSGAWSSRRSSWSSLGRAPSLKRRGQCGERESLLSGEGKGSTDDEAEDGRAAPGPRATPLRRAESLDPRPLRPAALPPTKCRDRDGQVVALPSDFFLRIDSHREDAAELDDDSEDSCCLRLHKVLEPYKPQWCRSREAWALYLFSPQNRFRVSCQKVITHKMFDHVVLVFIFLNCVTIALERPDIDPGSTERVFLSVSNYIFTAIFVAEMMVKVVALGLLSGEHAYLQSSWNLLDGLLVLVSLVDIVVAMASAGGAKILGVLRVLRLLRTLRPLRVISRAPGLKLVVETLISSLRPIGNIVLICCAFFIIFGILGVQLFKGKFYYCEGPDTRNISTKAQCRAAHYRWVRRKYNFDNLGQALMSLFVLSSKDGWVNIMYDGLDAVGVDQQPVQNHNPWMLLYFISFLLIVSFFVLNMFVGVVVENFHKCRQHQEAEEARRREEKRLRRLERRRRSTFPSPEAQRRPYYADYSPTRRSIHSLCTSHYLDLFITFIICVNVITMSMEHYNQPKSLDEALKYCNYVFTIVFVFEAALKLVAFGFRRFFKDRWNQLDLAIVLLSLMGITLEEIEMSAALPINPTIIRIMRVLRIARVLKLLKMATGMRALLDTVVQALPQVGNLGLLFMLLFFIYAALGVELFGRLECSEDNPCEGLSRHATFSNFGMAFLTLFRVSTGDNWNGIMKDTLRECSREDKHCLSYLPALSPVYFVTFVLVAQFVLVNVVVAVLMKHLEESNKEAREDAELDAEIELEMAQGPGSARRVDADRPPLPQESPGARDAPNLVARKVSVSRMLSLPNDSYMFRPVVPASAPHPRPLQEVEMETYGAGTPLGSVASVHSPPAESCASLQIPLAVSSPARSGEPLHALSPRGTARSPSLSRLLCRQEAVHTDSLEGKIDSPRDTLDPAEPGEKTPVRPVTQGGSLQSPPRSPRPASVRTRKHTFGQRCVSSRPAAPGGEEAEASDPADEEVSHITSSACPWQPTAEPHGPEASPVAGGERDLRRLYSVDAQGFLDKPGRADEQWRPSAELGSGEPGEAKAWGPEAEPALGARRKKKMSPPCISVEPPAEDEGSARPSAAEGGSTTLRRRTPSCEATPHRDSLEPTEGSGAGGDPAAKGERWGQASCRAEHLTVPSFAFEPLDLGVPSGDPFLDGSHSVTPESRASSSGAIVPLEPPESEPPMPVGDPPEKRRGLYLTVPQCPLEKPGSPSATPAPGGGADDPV

SMILES	IC50 [nM]
COc1ccc(Cn2ccc(NC(=O)Cc3ccc(OCC(F)(F)F)cc3)n2)cc1 [Example 45, N-[1-(4-Methoxy-benzyl)-1H-pyrazol-3-yl]-2-[4-(2,2,2-trifluoro-ethoxy)-phenyl]-acetamide]	33
Cn1ccc2cc(CC(=O)Nc3ccn(Cc4ccc(C#N)cc4)n3)cnc21 [Example 214, N-[1-(4-Cyano-benzyl)-1H-pyrazol-3-yl]-2-(1-methyl-1H-pyrrolo[2,3-b]pyridin-5-yl)-acetamide]	164
COc1ccc(Cn2ccc(NC(=O)Cc3ccc(N(C)C)cc3)n2)nc1 [Example 44, 2-(4-Dimethylamino-phenyl)-N-[1-(5-methoxy-pyridin-2-ylmethyl)-1H-pyrazol-3-yl]-acetamide]	372
Cc1cc(CC(=O)Nc2ccn(Cc3ccc(F)c(C#N)n3)n2)ccc1OCCC(F)(F)F [Example 420, N-[1-(6-Cyano-5-fluoro-pyridin-2-ylmethyl)-1H-pyrazol-3-yl]-2-[3-methyl-4-(3,3,3-trifluoro-propoxy)-phenyl]-acetamide]	8.7
O=C(Cc1ccc(OCC2CC2)c(OC(F)(F)F)c1)Nc1ccn(Cc2ccc(F)c(F)c2)n1 [Example 398, 2-(4-Cyclopropylmethoxy-3-trifluoromethoxy-phenyl)-N-[1-(3,4-difluoro-benzyl)-1H-pyrazol-3-yl]-acetamide]	39
Cc1ccc(CC(=O)Nc2ccn(Cc3ccc(C#N)cn3)n2)cc1OCC(F)(F)F [Example 381, N-[1-(5-Cyano-pyridin-2-ylmethyl)-1H-pyrazol-3-yl]-2-[4-methyl-3-(2,2,2-trifluoro-ethoxy)-phenyl]-acetamide]	54
N#Cc1cc(Cn2ccc(NC(=O)Cc3ccc(C4CC(F)(F)C4)cc3)n2)ccc1F [Example 312, N-[1-(3-Cyano-4-fluoro-benzyl)-1H-pyrazol-3-yl]-2-[4-(3,3-difluoro-cyclobutyl)-phenyl]-acetamide]	10
Cn1cc(C#N)c2cc(CC(=O)Nc3ccn(Cc4ccc(C#N)cn4)n3)ccc21 [Example 325, 2-(3-Cyano-1-methyl-1H-indol-5-yl)-N-[1-(5-cyano-pyridin-2-ylmethyl)-1H-pyrazol-3-yl]-acetamide]	893
Cc1ccc(Cn2ccc(NC(=O)Cc3ccc(N(C)C)nc3)n2)cc1 [Example 13, 2-(6-Dimethylamino-pyridin-3-yl)-N-[1-(4-methyl-benzyl)-1H-pyrazol-3-yl]-acetamide]	133
CC(C)c1ccc(CC(=O)Nc2ccn(Cc3ccc(C#N)c(OCC(F)(F)F)n3)n2)cc1 [Example 117, N-{1-[5-Cyano-6-(2,2,2-trifluoro-ethoxy)-pyridin-2-ylmethyl]-1H-pyrazol-3-yl}-2-(4-isopropyl-phenyl)-acetamide]	332
N#Cc1ccc(Cn2ccc(NC(=O)Cc3ccc(N4CCC4)cc3)n2)cc1 [Example 54, 2-(4-Azetidin-1-yl-phenyl)-N-[1-(4-cyano-benzyl)-1H-pyrazol-3-yl]-acetamide]	28
N#Cc1ccc(Cn2ccc(NC(=O)Cc3ccc(C4(C#N)CC4)cc3)n2)nc1 [Example 354, 2-[4-(1-Cyano-cyclopropyl)-phenyl]-N-[1-(5-cyano-pyridin-2-ylmethyl)-1H-pyrazol-3-yl]-acetamide]	248
CC(C)c1ccc(CC(=O)Nc2ccn(Cc3cc(C4CC4)c(C#N)cn3)n2)cc1 [Example 170, N-[1-(5-Cyano-4-cyclopropyl-pyridin-2-ylmethyl)-1H-pyrazol-3-yl]-2-(4-isopropyl-phenyl)-acetamide]	191
N#Cc1ccc(Cn2ccc(NC(=O)Cc3ccc(OC4COC4)cc3)n2)cc1 [Example 251, N-[1-(4-Cyano-benzyl)-1H-pyrazol-3-yl]-2-[4-(oxetan-3-yloxy)-phenyl]-acetamide]	303
N#Cc1ccc(Cn2ccc(NC(=O)Cc3ccc(OCC(F)(F)F)c(F)c3)n2)nc1 [Example 382, N-[1-(5-Cyano-pyridin-2-ylmethyl)-1H-pyrazol-3-yl]-2-[3-fluoro-4-(2,2,2-trifluoro-ethoxy)-phenyl]-acetamide]	114
N#Cc1ccc(Cn2ccc(NC(=O)Cc3ccc(OCC4(F)COC4)cc3)n2)cc1 [Example 256, N-[1-(4-Cyano-benzyl)-1H-pyrazol-3-yl]-2-[4-(3-fluoro-oxetan-3-ylmethoxy)-phenyl]-acetamide]	251
Cc1ccc(Cn2ccc(NC(=O)Cc3ccc4c(c3)c(C)cn4C)n2)nc1C#N [Example 369, N-[1-(6-Cyano-5-methyl-pyridin-2-ylmethyl)-1H-pyrazol-3-yl]-2-(1,3-dimethyl-1H-indol-5-yl)-acetamide]	64
Cn1ccc2cc(CC(=O)Nc3ccn(Cc4ccc(C#N)c(F)c4)n3)ccc21 [Example 292, N-[1-(4-Cyano-3-fluoro-benzyl)-1H-pyrazol-3-yl]-2-(1-methyl-1H-indol-5-yl)-acetamide]	6.5
N#Cc1ccc(Cn2ccc(NC(=O)Cc3ccc(F)cc3OCC(F)(F)F)n2)nc1 [Example 333, N-[1-(5-Cyano-pyridin-2-ylmethyl)-1H-pyrazol-3-yl]-2-[4-fluoro-2-(2,2,2-trifluoro-ethoxy)-phenyl]-acetamide]	2790

SMILES	IC50 [nM]
CCN(CC)c1ccc(CC(=O)Nc2ccn(Cc3ccc(F)c(F)c3)n2)cc1 [Example 113, 2-(4-Diethylamino-phenyl)-N-[1-(3,4-difluoro-benzyl)-1H-pyrazol-3-yl]-acetamide]	4.8
CC(C)c1ccc(CC(=O)Nc2ccn(Cc3ccc(N4CCC(F)(F)C4)cn3)n2)cc1 [Example 396, N-{1-[5-(3,3-Difluoro-pyrrolidin-1-yl)-pyridin-2-ylmethyl]-1H-pyrazol-3-yl}-2-(4-isopropyl-phenyl)-acetamide]	369
Cc1ccc(Cn2ccc(NC(=O)Cc3ccc(C(C)(C)C)cc3)n2)nc1C#N [Example 371, 2-(4-tert-Butyl-phenyl)-N-[1-(6-cyano-5-methyl-pyridin-2-ylmethyl)-1H-pyrazol-3-yl]-acetamide]	13
O=C(Cc1ccc(N2CC(F)(F)C2)nc1)Nc1ccn(Cc2ccc(F)cc2)n1 [Example 145, 2-[6-(3,3-Difluoro-azetidin-1-yl)-pyridin-3-yl]-N-[1-(4-fluoro-benzyl)-1H-pyrazol-3-yl]-acetamide]	44
COC1(c2ccc(CC(=O)Nc3ccn(Cc4cc(F)c(C#N)c(F)c4)n3)cc2)COC1 [Example 359, N-[1-(4-Cyano-3,5-difluoro-benzyl)-1H-pyrazol-3-yl]-2-[4-(3-methoxy-oxetan-3-yl)-phenyl]-acetamide]	212
CN(c1ccc(CC(=O)Nc2ccn(Cc3ccc(C#N)cn3)n2)cn1)C1CC1 [Example 164, N-[1-(5-Cyano-pyridin-2-ylmethyl)-1H-pyrazol-3-yl]-2-[6-(cyclopropyl(methyl)amino)-pyridin-3-yl]-acetamide]	568
CCN(C)c1ccc(CC(=O)Nc2ccn(Cc3ccc(C#N)cc3)n2)cn1 [Example 173, N-[1-(4-Cyano-benzyl)-1H-pyrazol-3-yl]-2-[6-(ethyl-methyl-amino)-pyridin-3-yl]-acetamide]	188
CC(C)c1ccc(CC(=O)Nc2ccn(Cc3ccc(C4CC4)cc3)n2)cc1 [Example 192, N-[1-(4-Cyclopropyl-benzyl)-1H-pyrazol-3-yl]-2-(4-isopropyl-phenyl)-acetamide]	133
Cc1ccc(Cn2ccc(NC(=O)Cc3ccc(C(C)C)cc3)n2)nc1 [Example 97, 2-(4-Isopropyl-phenyl)-N-[1-(5-methyl-pyridin-2-ylmethyl)-1H-pyrazol-3-yl]-acetamide]	31
COCCN(C)c1ccc(CC(=O)Nc2ccn(Cc3ccc(F)cc3)n2)cn1 [Example 182, N-[1-(4-Fluoro-benzyl)-1H-pyrazol-3-yl]-2-{6-[(2-methoxy-ethyl)-methyl-amino]-pyridin-3-yl}-acetamide]	65
Cc1ccc(Cn2ccc(NC(=O)Cc3ccc4c(c3)c(C)nn4C)n2)nc1C#N [Example 368, N-[1-(6-Cyano-5-methyl-pyridin-2-ylmethyl)-1H-pyrazol-3-yl]-2-(1,3-dimethyl-1H-indazol-5-yl)-acetamide]	301
CC1(C)Cc2ccc(CC(=O)Nc3ccn(Cc4ccc(C#N)cn4)n3)cc2O1 [Example 380, N-[1-(5-Cyano-pyridin-2-ylmethyl)-1H-pyrazol-3-yl]-2-(2,2-dimethyl-2,3-dihydro-benzofuran-6-yl)-acetamide]	214
O=C(Cc1ccc(N2CC(F)(F)C2)nc1)Nc1ccn(Cc2ccc(F)c(F)c2)n1 [Example 143, 2-[6-(3,3-Difluoro-azetidin-1-yl)-pyridin-3-yl]-N-[1-(3,4-difluoro-benzyl)-1H-pyrazol-3-yl]-acetamide]	19
N#Cc1cc(Cn2ccc(NC(=O)Cc3ccc(OCC(F)(F)F)c(C4CC4)c3)n2)ncc1F [Example 409, N-[1-(4-Cyano-5-fluoro-pyridin-2-ylmethyl)-1H-pyrazol-3-yl]-2-[3-cyclopropyl-4-(2,2,2-trifluoro-ethoxy)-phenyl]-acetamide]	43
CC(C)c1ccc(CC(=O)Nc2ccn(Cc3ccc(C4CC4)cn3)n2)cc1 [Example 96, N-[1-(5-Cyclopropyl-pyridin-2-ylmethyl)-1H-pyrazol-3-yl]-2-(4-isopropyl-phenyl)-acetamide]	53
N#Cc1cc(Cn2ccc(NC(=O)Cc3ccc(C4(C(F)(F)F)CC4)cc3)n2)ncc1F [Example 402, N-[1-(4-Cyano-5-fluoro-pyridin-2-ylmethyl)-1H-pyrazol-3-yl]-2-[4-(1-trifluoromethyl-cyclopropyl)-phenyl]-acetamide]	106
CC1(c2ccc(CC(=O)Nc3ccn(Cc4ccc(F)c(C#N)c4)n3)cc2)COC1 [Example 316, N-[1-(3-Cyano-4-fluoro-benzyl)-1H-pyrazol-3-yl]-2-[4-(3-methyl-oxetan-3-yl)-phenyl]-acetamide]	36
O=C(Cc1ccc(N2CC(F)C2)cc1)Nc1ccn(Cc2ccc(F)cc2)n1 [Example 73, 2-[4-(3-Fluoro-azetidin-1-yl)-phenyl]-N-[1-(4-fluoro-benzyl)-1H-pyrazol-3-yl]-acetamide]	7.9
